Test results: ChEMBL document CHEMBL5214905 (J Med Chem, 2021)
The source made the active and inactive calls. The rule behind the calls is not given here.

Assays:
[1] = Toxicity in MPTP induced C57BL/6J mouse neurodegenerative model assessed as no change in liver weight treated with MPTP for 7 days followed by compound administration at 10 to 30 mg/kg, po measured upto 32 days; type: organism-based; settings: in vivo, 768 h, dose 10-30 mg/kg, time < 32 day
BCRP [2] = test: Permeability in human Caco-2 expressing BCRP cells across apical to basolateral side by measuring ratio of the final amount of the compound in donor and receiver chambers to the initial amount of the compound in the donor chamber relative to control; type: ADME, cell-based
Mus musculus [3] = test: Neuroprotective activity in MPTP induced C57BL/6J mouse neurodegenerative model assessed as normal cell morphology in neuron cells treated with MPTP for 7 days followed by compound administration at 30 mg/kg, po by IHC staining method; type: functional, organism-based
CYP2C9 = CYP2C9 (Homo sapiens, UniProt P11712); test: Inhibition of human liver microsome CYP2C9 using 4'-hydroxy diclofenac as substrate incubated at 3 uM for 10 mins by LC/MS/MS analysis relative to control; settings: liver microsomes, probe 4'-hydroxy diclofenac (so in the source)
Chain of CYP2C9 (P11712 whole entry): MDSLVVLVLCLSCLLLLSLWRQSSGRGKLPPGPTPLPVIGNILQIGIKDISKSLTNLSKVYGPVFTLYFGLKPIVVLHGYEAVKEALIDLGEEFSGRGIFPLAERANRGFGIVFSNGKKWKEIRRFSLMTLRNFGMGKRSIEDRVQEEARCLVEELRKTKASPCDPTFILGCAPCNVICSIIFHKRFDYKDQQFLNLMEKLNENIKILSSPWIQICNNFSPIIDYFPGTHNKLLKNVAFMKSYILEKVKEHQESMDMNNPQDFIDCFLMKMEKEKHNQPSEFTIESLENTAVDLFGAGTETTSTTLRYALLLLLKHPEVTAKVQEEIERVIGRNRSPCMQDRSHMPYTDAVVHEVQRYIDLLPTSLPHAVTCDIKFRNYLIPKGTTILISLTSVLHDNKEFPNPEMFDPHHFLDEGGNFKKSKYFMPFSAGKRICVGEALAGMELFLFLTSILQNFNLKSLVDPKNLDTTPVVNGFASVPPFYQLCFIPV

MDR1 [4] = test: Permeability in MDCKII expressing MDR1 cells across basolateral to apical side by measuring ratio of the final amount of the compound in donor and receiver chambers to the initial amount of the compound in the donor chamber relative to control; type: ADME, cell-based, Canis lupus familiaris, MDCK-II; settings: dog, MDCK-MDR1
[5] = AUC (0 to 12 hrs) in Sprague-Dawley rat plasma at 100 mg/kg, po measured after 0.083 to 24 hrs by HPLC analysis; type: ADME, organism-based; set-up: time lower 0.083 hrs, dose 100 mg/kg, time upper 24 hrs, route po
Mus musculus [6] = test: Neuroprotective activity in MPTP induced neurodegenerative C57BL/6J mouse model blood assessed as increase in tryptophan metabolite KYNA treated with MPTP for 7 days followed by compound administration at 30 mg/kg, po by LC-MS/MS analysis; type: functional, organism-based
[7] = AUC (0 to infinity) in Sprague-Dawley rat plasma at 100 mg/kg, po measured after 0.083 to 24 hrs by HPLC analysis; type: ADME, organism-based; set-up: time 0.083-24 hrs, dose 100 mg/kg, route po
[8] = Cmax in Sprague-Dawley rat plasma at 100 mg/kg, po measured after 0.083 to 24 hrs by HPLC analysis; type: ADME, organism-based; set-up: time lower 0.083 hrs, dose 100 mg/kg, time upper 24 hrs, route po
[9] = Ratio of drug concentration in unbound brain to unbound plasma in Kunming mouse assessed as blood brain barrier permeability measured at 0.5 to 12 hrs by HPLC analysis; settings: time 0.5-12 hrs
[10] = biological target: T1, Tryptophan 2,3-dioxygenase (Homo sapiens, UniProt P48775)
T1 sequence (P48775 whole entry): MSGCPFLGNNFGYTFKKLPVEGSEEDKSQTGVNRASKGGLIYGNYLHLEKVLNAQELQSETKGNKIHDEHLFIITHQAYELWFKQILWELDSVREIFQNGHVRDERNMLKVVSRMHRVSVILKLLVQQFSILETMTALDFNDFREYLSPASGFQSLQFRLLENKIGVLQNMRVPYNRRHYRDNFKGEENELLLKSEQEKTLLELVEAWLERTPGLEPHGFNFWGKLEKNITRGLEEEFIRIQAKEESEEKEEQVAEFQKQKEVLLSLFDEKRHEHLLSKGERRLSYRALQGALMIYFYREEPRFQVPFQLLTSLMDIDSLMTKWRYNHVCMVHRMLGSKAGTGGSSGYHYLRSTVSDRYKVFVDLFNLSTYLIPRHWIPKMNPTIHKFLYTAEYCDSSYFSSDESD
Description: Inhibition of human TDO (19 to 388 aa) expressed in Escherichia coli Transetta (DE3) by nanodrop 2000c spectrophotometric analysis

MDR1 [11] = test: Apparent permeability in MDCKII expressing MDR1 cells across apical to basolateral side; type: ADME, cell-based, Canis lupus familiaris, MDCK-II; settings: dog, MDCK-MDR1; read-out: permeability
MDR1 [12] = test: Efflux ratio of apparent permeability across basolateral to apical side to apical to basolateral side in MDCKII expressing MDR1 cells; type: ADME, cell-based, Canis lupus familiaris, MDCK-II; settings: dog, MDCK-MDR1
BCRP [13] = test: Permeability in human Caco-2 expressing BCRP cells across apical to basolateral side by measuring ratio of the final amount of the compound in donor and receiver chambers to the initial amount of the compound in the donor chamber in presence of novobiocin relative to control; type: ADME, cell-based; settings: Caco-2, with novobiocin (concentration not stated)
Mus musculus [14] = test: In vivo antiinflammatory activity in MPTP induced C57BL/6J mouse neurodegenerative model assessed as decrease in IL-1 beta expression treated with MPTP for 7 days followed by compound administration at 30 mg/kg, po by Western blotting analysis; type: functional, organism-based
BCRP [15] = test: Efflux ratio of apparent permeability across basolateral to apical side to apical to basolateral side in human Caco-2 expressing BCRP cells in presence of novobiocin; type: ADME, cell-based; settings: Caco-2, with novobiocin (concentration not stated)
[16] = biological target: T1, Tryptophan 2,3-dioxygenase; test: Inhibition of TDO in overexpressing human A-172 cells; type: cell-based
[17] = Half life in Sprague-Dawley rat plasma at 100 mg/kg, iv by HPLC analysis; type: ADME, organism-based
[18] = AUC (0 to infinity) in Sprague-Dawley rat plasma at 100 mg/kg, iv measured after 0.083 to 24 hrs by HPLC analysis; type: ADME, organism-based; set-up: time lower 0.083 hrs, dose 100 mg/kg, time upper 24 hrs, route iv
BCRP [19] = test: Apparent permeability in human Caco-2 expressing BCRP cells across apical to basolateral side; type: ADME, cell-based; settings: read-out: permeability
[20] = biological target: Receptor-type tyrosine-protein kinase FLT3 (Homo sapiens) (UniProt P36888); test: Inhibition of human wildtype partial length FLT3 expressed in bacterial system at 10 uM relative to control
Chain of Receptor-type tyrosine-protein kinase FLT3 (Homo sapiens) (P36888 whole entry): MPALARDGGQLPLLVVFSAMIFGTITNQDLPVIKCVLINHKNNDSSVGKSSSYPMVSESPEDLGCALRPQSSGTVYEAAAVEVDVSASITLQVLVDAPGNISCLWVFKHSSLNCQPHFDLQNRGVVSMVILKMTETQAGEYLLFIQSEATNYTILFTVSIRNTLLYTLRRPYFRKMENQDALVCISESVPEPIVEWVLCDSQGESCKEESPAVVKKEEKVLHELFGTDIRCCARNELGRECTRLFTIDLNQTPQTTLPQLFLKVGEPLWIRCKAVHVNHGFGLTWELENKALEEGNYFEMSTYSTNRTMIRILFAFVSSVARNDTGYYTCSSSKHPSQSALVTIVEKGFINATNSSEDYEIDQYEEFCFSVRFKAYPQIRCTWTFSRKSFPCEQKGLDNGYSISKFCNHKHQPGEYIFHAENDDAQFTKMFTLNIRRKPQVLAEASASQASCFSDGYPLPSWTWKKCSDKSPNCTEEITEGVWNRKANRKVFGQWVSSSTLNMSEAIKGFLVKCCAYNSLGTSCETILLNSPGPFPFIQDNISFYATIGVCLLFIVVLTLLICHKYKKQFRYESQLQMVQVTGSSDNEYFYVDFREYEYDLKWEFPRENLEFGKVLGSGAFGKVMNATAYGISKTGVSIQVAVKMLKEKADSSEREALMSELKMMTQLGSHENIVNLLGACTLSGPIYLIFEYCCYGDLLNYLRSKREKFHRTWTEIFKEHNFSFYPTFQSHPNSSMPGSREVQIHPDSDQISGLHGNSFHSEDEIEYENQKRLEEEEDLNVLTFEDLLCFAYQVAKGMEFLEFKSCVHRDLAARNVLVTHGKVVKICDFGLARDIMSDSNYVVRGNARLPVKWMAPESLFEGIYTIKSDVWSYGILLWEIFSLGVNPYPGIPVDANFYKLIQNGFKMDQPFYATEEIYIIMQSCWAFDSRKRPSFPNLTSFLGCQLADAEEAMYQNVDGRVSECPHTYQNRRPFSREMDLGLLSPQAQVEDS

BCRP [21] = test: Permeability in human Caco-2 expressing BCRP cells across basolateral to apical side by measuring ratio of the final amount of the compound in donor and receiver chambers to the initial amount of the compound in the donor chamber relative to control; type: ADME, cell-based
Cytochrome P450 2C9 = Cytochrome P450 2C9 (Homo sapiens, UniProt P11712); test: Inhibition of human liver microsome CYP2C9 using 4'-hydroxy diclofenac as substrate incubated for 10 mins by LC/MS/MS analysis; type: microsomes
Chain of Cytochrome P450 2C9 (P11712 whole entry): as the sequence (P11712 whole entry) above

[22] = biological target: T1, Tryptophan 2,3-dioxygenase; test: Inhibition of TDO in overexpressing human SW48 cells; type: cell-based
[23] = Unbound fraction in mouse brain by LC-MS/MS analysis relative to control; type: ADME, tissue-based
Mus musculus [24] = test: Neuroprotective activity in MPTP induced C57BL/6J mouse neurodegenerative model assessed as increase in tyrosine hydroxylase expression in positive neuron cells in brain SNpc treated with MPTP for 7 days followed by compound administration at 30 mg/kg, po by IHC staining method; type: functional, organism-based; settings: Substantia nigra pars compacta
[25] = Toxicity in MPTP induced C57BL/6J mouse neurodegenerative model assessed as no change in kidney weight treated with MPTP for 7 days followed by compound administration at 10 to 30 mg/kg, po measured upto 32 days; type: organism-based; settings: in vivo, 768 h, dose 10-30 mg/kg, time < 32 day
Mus musculus [26] = test: Neuroprotective activity in MPTP induced C57BL/6J mouse neurodegenerative model assessed as decrease in Iba-1 expression in positive neuron cells in brain striatum treated with MPTP for 7 days followed by compound administration at 30 mg/kg, po by IHC staining method; type: functional, organism-based
[27] = Oral bioavailability in Sprague-Dawley rat plasma by measuring dose-corrected area under the curve (AUC) oral divided by AUC intravenous at 100 mg/kg measured after 0.083 to 24 hrs by HPLC analysis relative to control; type: ADME, organism-based; settings: time 0.083-24 hrs
[28] = AUC (0 to 12 hrs) in Sprague-Dawley rat plasma at 100 mg/kg, iv measured after 0.083 to 24 hrs by HPLC analysis; type: ADME, organism-based; set-up: dose 100 mg/kg, time 0.083-24 hrs, route iv

O[C@@H]1CCCC[C@H]1CNc1cc(Br)cc2[nH]ncc12
Activity [1]: Non-Toxic
recovery (BCRP [2]): 42.2%
Activity (Mus musculus [3]): Active
inhibition at 10 min, 3 µM (CYP2C9): 83.4%
recovery (MDR1 [4]): 81.9%
AUC(0-t) [5]: 22200 ng·h/mL
Activity (Mus musculus [6]): Active
AUC(0-inf) [7]: 26600 ng·h/mL
Cmax [8]: 6870 ng/mL
K(p,uu,brain) [9]: 0.28%
IC50 [10]: 40 nM
Papp A→B (MDR1 [11]): 13.5 ×10⁻⁶ cm/s
efflux ratio (MDR1 [12]): 0.77
recovery (BCRP [13]): 43.8%
Activity (Mus musculus [14]): Active
efflux ratio (BCRP [15]): 0.51
EC50 [16]: 3030 nM
half-life [17]: 10.1 h
AUC(0-inf) [18]: 43800 ng·h/mL
Papp A→B (BCRP [19]): 18.8 ×10⁻⁶ cm/s
inhibition [20]: > 90%
recovery (BCRP [21]): 74.5%
IC50 (Cytochrome P450 2C9): 9270 nM
EC50 [22]: 1070 nM
Fu [23]: 0.25%
Activity (Mus musculus [24]): Active
Activity [25]: Non-Toxic
Activity (Mus musculus [26]): Active
bioavailability [27]: 73.2%
AUC(0-t) [28]: 30300 ng·h/mL
